These results are taken from ChEMBL document CHEMBL1201862, “PubChem BioAssay data set” (2004).

A word on the IC50: it is the concentration that inhibits the measured activity by half. For orientation: CC50 means the concentration at which the toxic effect on the cells reaches its halfway point. Broadly, the AC50 is the midpoint of the concentration-response curve, whichever way the signal moves.

Test [1] has as its system HEK293. The experiment in a line: inhibition of NOD1-driven NF-kB reporter – cell-based, luminescence, uHTS, primary screen (AID 1578). Type of test: functional. To be noted: Homo sapiens.
The subject of test [2] is HEK293. The experiment in a line: cells. To be noted: Homo sapiens. Type of test: functional, cell-based.
Test [3] deals with HEK293. In words: cells. Particulars: Homo sapiens. The class given is functional, cell-based. This is another data set of the same source.
The target in test [4] is Nucleotide-binding oligomerization domain-containing protein 2 (Homo sapiens, UniProt Q9HC29). In words: inhibition of NOD2-driven NF-kB reporter – cell-based, luminescence, uHTS, HEK293 (AID 1566). The class given is functional.
Nucleotide-binding oligomerization domain-containing protein 2, sequence (Q9HC29 whole entry, the tested form may be a part): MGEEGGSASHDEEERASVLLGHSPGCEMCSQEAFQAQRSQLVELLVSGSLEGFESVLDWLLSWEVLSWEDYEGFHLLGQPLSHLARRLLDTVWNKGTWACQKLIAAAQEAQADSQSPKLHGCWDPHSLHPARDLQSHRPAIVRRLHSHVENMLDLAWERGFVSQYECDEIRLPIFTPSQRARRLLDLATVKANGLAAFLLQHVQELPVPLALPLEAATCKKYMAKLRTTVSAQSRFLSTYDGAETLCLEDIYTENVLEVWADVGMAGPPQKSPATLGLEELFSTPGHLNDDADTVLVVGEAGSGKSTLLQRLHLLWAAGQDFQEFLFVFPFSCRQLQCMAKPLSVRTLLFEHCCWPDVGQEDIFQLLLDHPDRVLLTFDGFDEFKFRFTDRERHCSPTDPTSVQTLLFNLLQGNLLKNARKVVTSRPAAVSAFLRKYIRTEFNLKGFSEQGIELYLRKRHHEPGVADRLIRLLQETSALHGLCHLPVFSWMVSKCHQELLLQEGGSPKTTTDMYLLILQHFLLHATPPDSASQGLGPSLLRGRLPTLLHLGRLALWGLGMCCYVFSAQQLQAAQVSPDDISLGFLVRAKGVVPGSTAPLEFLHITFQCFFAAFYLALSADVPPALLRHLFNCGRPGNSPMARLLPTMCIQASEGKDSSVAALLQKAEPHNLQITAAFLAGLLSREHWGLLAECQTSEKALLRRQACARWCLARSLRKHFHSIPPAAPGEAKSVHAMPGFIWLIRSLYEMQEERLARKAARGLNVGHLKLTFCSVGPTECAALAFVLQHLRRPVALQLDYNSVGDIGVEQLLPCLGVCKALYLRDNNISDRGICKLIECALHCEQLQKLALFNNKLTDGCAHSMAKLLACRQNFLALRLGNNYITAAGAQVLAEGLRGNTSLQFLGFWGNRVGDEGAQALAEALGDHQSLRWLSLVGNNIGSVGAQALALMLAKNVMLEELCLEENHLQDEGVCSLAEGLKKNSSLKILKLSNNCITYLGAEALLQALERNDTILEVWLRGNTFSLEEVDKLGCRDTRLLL
Test [5] has as its system HEK293. The experiment in a line: NOD2 signaling inhibitors in MDP-stimulated cells, cell-based, uHTS, luminescence (AID 2001). Type of test: functional. To be noted: Homo sapiens.
For test [6], the system named is HEK293. The experiment in a line: cells. The class given is functional, cell-based. To be noted: Homo sapiens. This is another data set of the same source.
Test [7] deals with T1, Short transient receptor potential channel 4 (Mus musculus, UniProt Q9QUQ5).
T1 sequence (Q9QUQ5 whole entry): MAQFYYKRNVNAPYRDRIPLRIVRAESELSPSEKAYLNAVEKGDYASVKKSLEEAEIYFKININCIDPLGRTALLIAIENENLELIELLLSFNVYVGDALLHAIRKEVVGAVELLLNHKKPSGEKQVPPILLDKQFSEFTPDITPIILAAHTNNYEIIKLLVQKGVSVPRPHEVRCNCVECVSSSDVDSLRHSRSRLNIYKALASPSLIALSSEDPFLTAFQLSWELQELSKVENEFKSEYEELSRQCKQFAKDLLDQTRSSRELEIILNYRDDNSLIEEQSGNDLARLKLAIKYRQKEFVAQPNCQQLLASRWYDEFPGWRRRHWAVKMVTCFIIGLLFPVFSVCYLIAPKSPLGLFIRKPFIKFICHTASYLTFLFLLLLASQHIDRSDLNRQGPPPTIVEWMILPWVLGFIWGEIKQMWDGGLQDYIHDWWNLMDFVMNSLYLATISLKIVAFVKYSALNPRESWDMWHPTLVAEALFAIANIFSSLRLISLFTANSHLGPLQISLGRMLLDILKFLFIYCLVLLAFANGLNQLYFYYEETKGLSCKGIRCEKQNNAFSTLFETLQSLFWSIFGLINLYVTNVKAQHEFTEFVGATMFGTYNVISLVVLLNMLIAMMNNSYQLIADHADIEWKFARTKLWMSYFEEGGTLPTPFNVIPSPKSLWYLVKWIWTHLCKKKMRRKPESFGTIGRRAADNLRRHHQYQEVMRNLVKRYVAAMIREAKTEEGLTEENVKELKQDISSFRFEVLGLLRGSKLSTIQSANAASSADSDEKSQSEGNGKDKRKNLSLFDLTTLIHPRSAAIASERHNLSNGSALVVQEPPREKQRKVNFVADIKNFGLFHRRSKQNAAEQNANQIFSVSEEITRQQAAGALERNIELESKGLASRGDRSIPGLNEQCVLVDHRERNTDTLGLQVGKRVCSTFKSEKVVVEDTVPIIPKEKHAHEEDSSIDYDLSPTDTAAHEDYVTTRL
The experiment in a line: block of DAMGO-driven TRPC4 calcium entry – cell-based, HEK293 TRPC4/mu-opioid, Fluo-4 calcium, dose response (AID 434942).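 Also: potency of inhibitors blocking the TRPC4 calcium response.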 The class given is functional.

Test [8] addresses T2, Carboxy-terminal domain RNA polymerase II polypeptide A small phosphatase 1 (Homo sapiens, UniProt Q9GZU7).
T2 sequence (Q9GZU7 whole entry): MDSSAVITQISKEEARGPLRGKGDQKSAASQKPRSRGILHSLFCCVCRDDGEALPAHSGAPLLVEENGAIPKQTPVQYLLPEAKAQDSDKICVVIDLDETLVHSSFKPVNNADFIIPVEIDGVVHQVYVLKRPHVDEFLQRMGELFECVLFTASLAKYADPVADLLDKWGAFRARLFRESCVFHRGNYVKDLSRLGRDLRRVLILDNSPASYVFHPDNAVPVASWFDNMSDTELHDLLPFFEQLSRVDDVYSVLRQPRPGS
The experiment in a line: CTDSP1 inhibitors, concentration-response, biochemical, absorbance readout, ultra-high-throughput screen actives (AID 540297). Type of test: functional.

Test [9] concerns the target Eukaryotic translation initiation factor 4E (Mus musculus, UniProt P63073). In words: blockers of eIF4G binding by eIF4E – biochemical, TR-FRET, dose response (AID 855).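 Also: potency for disrupting eIF4E binding to eIF4GI seen as loss of FRET.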 Type of test: functional. For orientation: In TR-FRET formats the signal depends on donor and acceptor labels being close together.
Test [10] has as its system Vero. In words: cells. The class given is functional. Particulars: Chlorocebus sabaeus.
Test [11] deals with Melanocortin receptor 4 (Homo sapiens, UniProt P32245). The class given is functional, cell-based.
Melanocortin receptor 4, sequence (P32245 whole entry): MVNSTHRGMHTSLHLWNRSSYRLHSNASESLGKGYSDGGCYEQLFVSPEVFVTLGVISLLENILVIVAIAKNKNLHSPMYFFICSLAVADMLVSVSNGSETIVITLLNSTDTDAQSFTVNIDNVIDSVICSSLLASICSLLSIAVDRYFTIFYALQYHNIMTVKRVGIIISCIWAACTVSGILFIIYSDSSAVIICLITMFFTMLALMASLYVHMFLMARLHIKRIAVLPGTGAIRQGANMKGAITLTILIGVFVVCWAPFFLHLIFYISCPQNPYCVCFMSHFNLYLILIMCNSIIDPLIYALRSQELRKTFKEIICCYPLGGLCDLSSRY
Test [12] has as its target Cytochrome P450 2C19 (Homo sapiens, UniProt P33261). In words: Cytochrome panel assay with activity outcomes. Panel member name: p450-cyp2c19 Compounds with AC50 equal or less than 10 uM are considered active. The class given is functional. Particulars: read-out: AC50.
Test [13] deals with T3, Voltage-gated N-type calcium channel alpha-1B subunit/Amyloid beta A4 precursor protein-binding family A member 1 (Homo sapiens, UniProt Q00975+Q02410). Type of test: protein assay.
T3 sequence (Q00975 whole entry): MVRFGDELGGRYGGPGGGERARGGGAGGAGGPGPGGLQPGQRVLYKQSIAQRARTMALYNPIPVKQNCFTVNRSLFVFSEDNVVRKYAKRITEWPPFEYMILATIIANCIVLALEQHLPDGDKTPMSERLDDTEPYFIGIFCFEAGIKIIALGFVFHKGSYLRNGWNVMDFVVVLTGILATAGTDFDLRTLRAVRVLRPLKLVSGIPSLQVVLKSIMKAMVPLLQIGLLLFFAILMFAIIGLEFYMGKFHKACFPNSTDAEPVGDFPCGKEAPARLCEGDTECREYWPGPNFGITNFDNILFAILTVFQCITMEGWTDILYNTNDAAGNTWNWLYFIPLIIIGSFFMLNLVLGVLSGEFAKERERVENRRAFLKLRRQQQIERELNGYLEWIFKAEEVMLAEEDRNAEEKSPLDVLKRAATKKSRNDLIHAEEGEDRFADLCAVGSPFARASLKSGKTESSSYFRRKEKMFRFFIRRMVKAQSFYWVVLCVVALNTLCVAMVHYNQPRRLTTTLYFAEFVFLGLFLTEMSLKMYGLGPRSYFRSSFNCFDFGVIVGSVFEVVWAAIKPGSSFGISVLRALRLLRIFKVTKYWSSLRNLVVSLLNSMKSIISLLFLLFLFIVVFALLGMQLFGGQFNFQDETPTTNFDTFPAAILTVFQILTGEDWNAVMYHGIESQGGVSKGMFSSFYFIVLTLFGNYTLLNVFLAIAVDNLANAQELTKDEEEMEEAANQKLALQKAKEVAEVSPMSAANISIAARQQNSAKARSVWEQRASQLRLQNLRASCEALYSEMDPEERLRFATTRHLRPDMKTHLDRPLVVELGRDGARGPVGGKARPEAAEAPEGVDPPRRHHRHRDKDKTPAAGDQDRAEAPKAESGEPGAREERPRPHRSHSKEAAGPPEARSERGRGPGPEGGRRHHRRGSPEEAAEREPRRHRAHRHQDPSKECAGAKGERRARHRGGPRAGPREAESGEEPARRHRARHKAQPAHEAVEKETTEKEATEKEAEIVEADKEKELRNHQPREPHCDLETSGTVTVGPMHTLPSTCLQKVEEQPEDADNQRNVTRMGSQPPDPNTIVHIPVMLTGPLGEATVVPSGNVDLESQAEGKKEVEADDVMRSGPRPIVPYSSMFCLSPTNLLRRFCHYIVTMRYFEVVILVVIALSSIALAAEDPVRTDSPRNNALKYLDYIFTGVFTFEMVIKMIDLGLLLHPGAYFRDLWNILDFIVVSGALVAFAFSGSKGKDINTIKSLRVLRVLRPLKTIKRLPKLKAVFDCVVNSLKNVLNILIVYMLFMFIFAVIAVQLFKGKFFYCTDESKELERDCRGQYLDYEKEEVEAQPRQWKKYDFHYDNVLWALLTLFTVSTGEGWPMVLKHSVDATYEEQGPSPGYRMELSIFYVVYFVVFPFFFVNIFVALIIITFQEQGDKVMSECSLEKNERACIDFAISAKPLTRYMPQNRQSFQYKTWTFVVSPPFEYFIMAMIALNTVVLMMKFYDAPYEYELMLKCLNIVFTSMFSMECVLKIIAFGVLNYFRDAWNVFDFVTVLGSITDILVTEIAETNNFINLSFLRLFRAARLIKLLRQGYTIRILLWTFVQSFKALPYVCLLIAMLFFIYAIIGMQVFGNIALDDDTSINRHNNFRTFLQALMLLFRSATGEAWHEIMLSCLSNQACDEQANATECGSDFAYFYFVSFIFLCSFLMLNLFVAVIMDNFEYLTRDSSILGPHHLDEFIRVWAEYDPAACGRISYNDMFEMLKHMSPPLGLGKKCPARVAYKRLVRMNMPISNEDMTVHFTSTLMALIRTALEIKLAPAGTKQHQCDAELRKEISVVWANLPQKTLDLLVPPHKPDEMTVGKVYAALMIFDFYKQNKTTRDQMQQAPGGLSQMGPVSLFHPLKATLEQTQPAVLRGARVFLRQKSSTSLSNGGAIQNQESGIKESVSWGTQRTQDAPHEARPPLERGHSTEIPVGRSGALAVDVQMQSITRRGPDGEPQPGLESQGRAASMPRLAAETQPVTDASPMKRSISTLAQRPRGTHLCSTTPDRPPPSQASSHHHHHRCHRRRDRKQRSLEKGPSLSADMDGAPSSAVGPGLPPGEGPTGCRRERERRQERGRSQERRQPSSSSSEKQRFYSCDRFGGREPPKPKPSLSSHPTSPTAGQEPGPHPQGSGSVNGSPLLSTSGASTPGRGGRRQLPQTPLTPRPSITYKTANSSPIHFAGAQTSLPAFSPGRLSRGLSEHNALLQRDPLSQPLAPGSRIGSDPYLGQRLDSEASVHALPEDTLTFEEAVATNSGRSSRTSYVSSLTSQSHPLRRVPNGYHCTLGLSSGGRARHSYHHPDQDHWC
T3 sequence (Q02410 whole entry): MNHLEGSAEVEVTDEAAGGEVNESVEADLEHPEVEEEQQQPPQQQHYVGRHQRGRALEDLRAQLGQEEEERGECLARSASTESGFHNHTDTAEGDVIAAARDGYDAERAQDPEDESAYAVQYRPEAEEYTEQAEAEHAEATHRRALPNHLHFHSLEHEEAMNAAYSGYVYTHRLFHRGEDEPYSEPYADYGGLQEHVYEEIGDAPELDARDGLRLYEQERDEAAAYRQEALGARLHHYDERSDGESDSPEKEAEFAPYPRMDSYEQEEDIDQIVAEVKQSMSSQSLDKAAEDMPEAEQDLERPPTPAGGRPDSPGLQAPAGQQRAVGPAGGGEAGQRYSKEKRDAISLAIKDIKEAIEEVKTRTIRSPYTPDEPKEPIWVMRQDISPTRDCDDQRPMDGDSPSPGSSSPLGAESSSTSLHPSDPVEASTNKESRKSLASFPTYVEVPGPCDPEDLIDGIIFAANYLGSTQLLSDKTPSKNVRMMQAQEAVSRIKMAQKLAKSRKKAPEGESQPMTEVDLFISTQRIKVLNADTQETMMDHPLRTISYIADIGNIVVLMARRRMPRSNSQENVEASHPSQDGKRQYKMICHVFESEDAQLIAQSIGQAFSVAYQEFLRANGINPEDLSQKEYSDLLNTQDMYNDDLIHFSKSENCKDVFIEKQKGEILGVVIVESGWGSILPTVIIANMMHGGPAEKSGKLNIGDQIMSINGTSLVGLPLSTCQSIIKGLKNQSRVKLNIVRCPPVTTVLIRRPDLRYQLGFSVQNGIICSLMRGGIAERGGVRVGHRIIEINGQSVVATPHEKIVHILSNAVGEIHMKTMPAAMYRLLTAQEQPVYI
Test [14] deals with T3, Voltage-gated N-type calcium channel alpha-1B subunit/Amyloid beta A4 precursor protein-binding family A member 1. The class given is protein assay. The source holds these as a separate data set.
The nature of test [15]: viability of uninfected HEp-2 cells – cell-based, HTS, cytotoxicity control for RSV inhibitor project, dose response (AID 2410). To be noted: human respiratory syncytial virus. Type of test: functional.
A short description of test [16]: viability of PTEN-deleted HCT116 cells – cell-based, HCT116 PTEN knockout, dose response (AID 1047).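 Also: HCT116 colon tumor cells with PTEN knocked out; cells exposed to compound for 60 hours before readout; potency for loss of cell viability measured by luminescence.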 Type of test: functional.
The target of test [17] is Voltage-dependent T-type calcium channel subunit alpha-1H (Homo sapiens, UniProt O95180). Type of test: functional.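 Also: channel activity triggered by adding a high calcium stimulation buffer.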
Test [18] has as its system INS1. The experiment in a line: INS-1E survival protection against cytokine death – cell-based, luminescence, retest, dose response (AID 449756).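 Also: cell death triggered by IL-1 beta plus TNF-alpha plus IFN-gamma mixture; protective hits raise ATP signal compared with cytokine alone wells.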 Type of test: functional. Particulars: Rattus norvegicus.
The target of test [19] is T4, Corticotropin-releasing factor receptor 2/Corticotropin-releasing factor-binding protein (Homo sapiens, UniProt P24387+Q13324).
T4 sequence (Q13324 whole entry): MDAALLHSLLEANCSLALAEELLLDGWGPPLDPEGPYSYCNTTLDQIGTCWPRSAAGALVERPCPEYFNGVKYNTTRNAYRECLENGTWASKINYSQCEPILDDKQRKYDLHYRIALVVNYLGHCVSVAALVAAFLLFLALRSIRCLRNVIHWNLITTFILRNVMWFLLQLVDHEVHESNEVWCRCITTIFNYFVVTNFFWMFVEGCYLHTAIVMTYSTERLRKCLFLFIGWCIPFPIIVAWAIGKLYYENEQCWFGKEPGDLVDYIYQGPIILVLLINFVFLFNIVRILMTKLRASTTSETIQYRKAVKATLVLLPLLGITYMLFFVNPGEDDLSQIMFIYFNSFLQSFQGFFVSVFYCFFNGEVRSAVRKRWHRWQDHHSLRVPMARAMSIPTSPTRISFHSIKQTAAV
T4 sequence (P24387 whole entry): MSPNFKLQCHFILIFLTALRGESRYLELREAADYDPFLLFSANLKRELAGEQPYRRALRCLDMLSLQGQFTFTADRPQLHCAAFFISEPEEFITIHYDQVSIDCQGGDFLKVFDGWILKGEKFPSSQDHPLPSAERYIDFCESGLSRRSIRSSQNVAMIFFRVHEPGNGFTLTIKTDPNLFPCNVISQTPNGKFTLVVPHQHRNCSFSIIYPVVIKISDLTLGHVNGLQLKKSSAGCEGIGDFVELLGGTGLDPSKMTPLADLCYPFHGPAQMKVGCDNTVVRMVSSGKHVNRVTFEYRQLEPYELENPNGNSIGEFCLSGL
In words: activators of CRF receptor 2 with binding protein – uHTS hits, confirmation (AID 602473). Type of test: functional. Particulars: read-out: EC50_Mean.

In test [20] the target is T5, RNA-binding protein pos-1 (Caenorhabditis elegans, UniProt G5EF15).
T5 sequence (G5EF15 whole entry): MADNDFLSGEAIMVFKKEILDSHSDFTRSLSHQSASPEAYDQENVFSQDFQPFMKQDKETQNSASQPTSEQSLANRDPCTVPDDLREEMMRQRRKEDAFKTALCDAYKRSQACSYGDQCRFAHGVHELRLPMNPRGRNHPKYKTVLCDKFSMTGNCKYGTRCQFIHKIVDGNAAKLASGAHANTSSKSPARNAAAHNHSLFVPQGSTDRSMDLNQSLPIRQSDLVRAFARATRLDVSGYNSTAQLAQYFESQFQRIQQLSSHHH
In words: disruptors of C. elegans POS-1 RNA interaction – biochemical, fluorescence polarization, dose response (AID 1964).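 Also: purified POS-1 fused to maltose binding protein made in E. coli; potency of compounds blocking POS-1 binding to fluorescent RNA.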 Background: Polarisation of emitted light reports the rotation of a fluorescent probe.

Test [21] has as its target T6, Zinc finger protein mex-5 (Caenorhabditis elegans, UniProt Q9XUB2).
T6 sequence (Q9XUB2 whole entry): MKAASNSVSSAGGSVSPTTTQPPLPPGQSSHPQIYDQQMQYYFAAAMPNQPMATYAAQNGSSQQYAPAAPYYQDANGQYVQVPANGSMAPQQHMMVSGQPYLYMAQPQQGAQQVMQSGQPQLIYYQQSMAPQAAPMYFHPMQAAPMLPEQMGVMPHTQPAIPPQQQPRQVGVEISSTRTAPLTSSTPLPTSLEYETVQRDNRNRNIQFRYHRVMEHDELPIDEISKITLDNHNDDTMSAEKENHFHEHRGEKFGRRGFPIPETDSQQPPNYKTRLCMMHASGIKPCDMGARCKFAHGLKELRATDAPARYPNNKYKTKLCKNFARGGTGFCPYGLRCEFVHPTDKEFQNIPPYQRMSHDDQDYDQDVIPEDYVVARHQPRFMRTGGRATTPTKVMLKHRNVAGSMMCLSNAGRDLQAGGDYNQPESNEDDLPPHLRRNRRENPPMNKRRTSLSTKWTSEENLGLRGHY
In words: potency of MEX-5 RNA-binding blockers – biochemical, C. elegans, fluorescence polarization, dose response (AID 1960).

Activity calls are given as the source filed them.

Eukaryotic translation initiation factor 4E, sequence (P63073 whole entry): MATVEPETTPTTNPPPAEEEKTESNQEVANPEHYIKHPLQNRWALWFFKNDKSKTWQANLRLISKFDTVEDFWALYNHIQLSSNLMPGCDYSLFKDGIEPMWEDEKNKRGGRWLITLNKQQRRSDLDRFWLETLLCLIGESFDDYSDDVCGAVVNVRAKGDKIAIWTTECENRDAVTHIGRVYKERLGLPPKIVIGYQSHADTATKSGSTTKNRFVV

As for `COc1ccccc1N1CCN(c2ncnc3sc(C)c(-c4ccccc4)c23)CC1`, the EC50 was 5.48 µM (active) in test [1] and 11.5 µM (active) in [4]. Also, the IC50 is 6.68 µM (active) in test [2], > 20 µM (inactive) in [3], 6.98 µM (active) in [5] and 17.2 µM (active) in [6].

Regarding `OCC(Cc1ccccc1)NCc1ccccc1C(F)(F)F` (centres undefined), the EC50 in test [7] was 8.41 µM (active).

As to `O=C(COC(=O)c1cccc([N+](=O)[O-])c1)c1ccc2c(c1)OCO2`, the EC50 in test [7] is 0.0027 µM (active).

Consider `O=C(COC(=O)c1cc(-c2ccccc2Cl)nc2ccccc12)Nc1ncc(C(F)(F)F)cc1Cl`, for which, in [8], the half-inhibitory concentration (IC50) was 39 µM (active).

With `O=C(O)c1cc(-c2ccccc2)n(-c2ccccc2C(=O)O)n1`, in test [9], the IC50 is > 64 µM (inactive).

For the compound `Cc1ccc(C(=O)Cn2c(C(=O)/C=C/c3ccccc3)nc3ccccc32)cc1`, the cytotoxic concentration (CC50) in test [10] is 16.4 µM (active). Moreover, the EC50 in test [11] is > 89.2 µM (inactive).

With `COc1ccc(NC2=NCC(=O)N2Cc2cccs2)cc1`, in [9], the IC50 is > 64 µM (inactive). Further, the AC50 in test [12] is 8.91 µM (inconclusive).

Regarding `CCC(=O)N1CCc2cc(S(=O)(=O)NCCN3CCCCC3CC)ccc21` (centres undefined), the EC50 in [7] is 2.66 µM (active).

Take `CC(=O)Nc1ccc(NC(=O)c2cc(-c3ccc(C)c(C)c3O)[nH]n2)cc1`: the IC50 in test [13] is 23.2 µM (active); in test [14] it was > 50 µM (inactive).

As to `CCOC(=O)/C=C/C(=O)Nc1ccc(S(=O)(=O)N(C)c2ccccc2)cc1`, the EC50 in test [1] was 4.41 µM (active); in test [4], > 20 µM (inactive). For the same compound, the half-maximal inhibitory concentration (IC50) is 5.26 µM (active) in [2], 16.3 µM (active) in test [3], 4.98 µM (active) in [5] and > 20 µM (inactive) in [6].

With `COc1ccccc1OCCOc1ccc(/C=C2\C(=N)N3N=C(S(C)(=O)=O)SC3=NC2=O)cc1`, the cytotoxic concentration (CC50) in test [15] is 22.5 µM (active). Besides, in [8], the IC50 is 3.6 µM (active).

With `CC(C)NCC(O)COCCOc1ccc(C(C)(C)C)cc1` (centres undefined), the EC50 in test [7] was 1.06 µM (active).

In the case of `COC(=O)c1ccccc1NC(=O)c1cc(-c2ccco2)on1`, the half-inhibitory concentration (IC50) in test [13] is 13.7 µM (active); in [14], > 50 µM (inactive).

For `Cc1ccc(Cn2nc(C)c(NC(=O)CSc3nc4c(c(C(F)(F)F)n3)CCc3ccccc3-4)c2C)cc1`, the EC50 in test [16] was 21 µM (active). Besides, the IC50 in [9] is > 64 µM (inactive).

As to `CNC(=O)c1sc(N2N=C3/C(=C/c4ccccc4)CCCC3C2c2ccccc2)nc1C` (centres undefined), the EC50 in test [17] was 9.13 µM (active); in [19] it was 16.1 µM (active). Moreover, the AC50 in [18] is 6.72 µM (active).

On to `CCN(CC)S(=O)(=O)c1ccc(NC(=O)c2cc(C(=O)OC)cc([N+](=O)[O-])c2)cc1`, for which the IC50 in test [9] was > 64 µM (inactive).

In the case of `CC(C(=O)N1CCCCC1)N1CCN(S(=O)(=O)c2ccc(Cl)cc2)CC1` (centres undefined), the IC50 in [8] was 54.9 µM (active).

As for `NC(c1csc(NC(=O)Nc2cccc(Cl)c2)n1)C1CCCCC1` (centres undefined), the EC50 in [11] is > 89.2 µM (inactive).

For `Cc1ccc(/N=C/c2nc(-c3ccc(C)cc3)oc2O)cc1`, the EC50 in test [20] is 32.6 µM (active); in [21], 68.7 µM (active). Also, the IC50 in [9] is 50 µM (inactive).
